Assays:
Assay type in all cases: cell-based, bovine
[1] = system: LXR downstream genes: SREBP1, FASN, SLC25A1 and SQLE; experiment: RT-PCR expression of LXR downstream lipid metabolism genes in MECs after overnight LXR agonist incubation; details: OA incubation of MECs
Protocol: A primary culture of MEC was isolated from mammary biopsies. Briefly, udder tissue was collected from lactating cows in a commercial slaughterhouse and immediately submerged in ice-cold growth medium, DMEM-F12, with 1000 U/ml penicillin, 1 mg/ml streptomycin, 2.5 μg/ml amphotericin B mixture, and 0.02 mg/ml heparin supplementation to prevent cell clotting after digestion. Study protocols followed the regulations of the Israeli Ministry of Health. Cells were grown in plastic culture dishes with DMEM/F12 supplemented with 10% (w/v) FBS, 100 U/ml penicillin, 100 μg/ml streptomycin, 0.25 μg/ml amphotericin B supplemented with insulin (1 μg/ml), hydrocortisone (0.5 μg/ml) and prolactin (1 μg/ml). 2. […] LXRa was added into the media with or without Oleic acid. Two LXR agonists were tested: GW3965 (LXR1, SIGMA) and T0901317 (LXR2, SIGMA), each at a concentration of luM/ml for at least overnight (ON) incubation. The OA was added after cells reached the confluency of at least 80%. Cells were harvested using the […] reagent and pellet was collected by centrifugation of 3 min in 300 rcf. RNA was extracted from 1×10^6 cells using NzytechTM total RNA isolation kit (MB13402). cDNA was prepared using SensiFastTM cDNA kit (0.5μgr RNA/20 μl reaction mix). RT-PCR was done with the following primers by using SensiFastTM RT-PCR kit with 1.25-20 ng cDNA/well. [table] […]

[2] = system: mammary epithelial cells (MECs); experiment: Cell viability and morphology of MECs under oleic acid with or without LXRa
Protocol: 1. Oleic acid treatment: Oleic acid was added to the induction medium at […] final concentration. Treatment was carried for 1 up to 7 days.
2. […] LXRa was added into the media with or without Oleic acid. Two LXR agonists were tested: GW3965 (LXR1, SIGMA) and T0901317 (LXR2, SIGMA), each at a concentration of luM/ml for at least overnight (ON) incubation. The OA was added after cells reached the confluency of at least 80%.
The analysis was done for the presence of 360 μM OA or 1100 μM OA with or without LXRa (TO901317).

[3] = system: mammary epithelial cells (MECs); experiment: Intracellular triglycerides (TGs) in MECs, plate assay
Protocol: 1. Oleic acid treatment: Oleic acid was added to the induction medium at […] final concentration. Treatment was carried for 1 up to 7 days. 2. […] LXRa was added into the media with or without Oleic acid. Two LXR agonists were tested: GW3965 (LXR1, SIGMA) and T0901317 (LXR2, SIGMA), each at a concentration of luM/ml for at least overnight (ON) incubation. The OA was added after cells reached the confluency of at least 80%. After treatment, cells were harvested with trypsin (0.05%), washed with 0.9% (w/v) NaCl and stored at −20° C. until lipid extraction. Total lipids were extracted from the intact cells by NP-40 and from media by cold-extraction procedure developed by Folch et al. with few adaptations. Briefly, a 5-ml aliquot of methanol: chloroform solution (2:1, v/v) was added to each sample. After incubation at room temperature, 1 ml of double-distilled water was added. After overnight incubation at 4° C., the upper phase was discarded, and the lower phase was filtered through a Pasteur pipette with glass wool. Samples were then dried under a nitrogen stream at 65° C., diluted in 100 μl 0.5% NP-40. Of note, lipid metabolites are measured by Cobas measurement, which is a parameter for lipid activity but measures also glycerol, the plate assay on the other hand measures TGs specifically while eliminating the glycerol background. After treatment, medium was collected and centrifuged at 500 g for 10 min. The supernatant was transferred to a fresh tube and kept at 4° C. until analysis. Medium triglyceride content was quantified with a Triglyceride Quantification Kit (lipase assay Abcam, Cambridge, UK). Quantification was performed against external standard curves and expressed as μg/10∧6 live cells. Live cell number was determined with a hemocytometer after Trypan blue staining.

[4] = system: mammary epithelial cells (MECs); experiment: Lipids / lipid metabolites released to the culture medium of MECs; details: 1 μM/ml LXRa with OA
Protocol: Total lipids were extracted from the intact cells by NP-40 and from media by cold-extraction procedure developed by Folch et al. with few adaptations. Briefly, a 5-ml aliquot of methanol: chloroform solution (2:1, v/v) was added to each sample. After incubation at room temperature, 1 ml of double-distilled water was added. After overnight incubation at 4° C., the upper phase was discarded, and the lower phase was filtered through a Pasteur pipette with glass wool. Samples were then dried under a nitrogen stream at 65° C., diluted in 100 μl 0.5% NP-40. Of note, lipid metabolites are measured by Cobas measurement, which is a parameter for lipid activity but measures also glycerol, the plate assay on the other hand measures TGs specifically while eliminating the glycerol background. After treatment, medium was collected and centrifuged at 500 g for 10 min. The supernatant was transferred to a fresh tube and kept at 4° C. until analysis. Medium triglyceride content was quantified with a Triglyceride Quantification Kit (lipase assay Abcam, Cambridge, UK). Quantification was performed against external standard curves and expressed as μg/10∧6 live cells. Live cell number was determined with a hemocytometer after Trypan blue staining.

Row | SMILES | Effect on LXR dependent gene expression of lipid metabolism [1] | Effect on cells viability ([2]; oleic acid above 300 μM or longer than one day) | Effect of LXRa on oleic acid toxicity (cells viability and morphology) ([2]; LXRa 1 μM/ml TO901317, 360 μM or 1100 μM OA) | Higher intracellular TGs levels vs OA only ([3]; 360 μM OA treatment, LXRa 1 μl/ml) | Delta triglycerides (TGs) levels inside cells with vs without LXRa ([3]; FIG. 3) | Effect of LXR agonist on intracellular TGs ([3]; OA concentrations higher than 360 μM) | Lipids release to the medium [4]
1 | CCCCCCCC/C=C\CCCCCCCC(=O)O [Oleic acid, oleic acid] | no effect | negative effect |  |  |  |  | 
2 | O=S(=O)(c1ccccc1)N(CC(F)(F)F)c1ccc(C(O)(C(F)(F)F)C(F)(F)F)cc1 [LXRa, T0901317] |  |  | ameliorates the negative effect | 60% | similar | not observed | release lipids to the medium

Reference: patent US20250305010A1, “LIPID COMPOSITIONS AND METHODS OF PRODUCING SAME” (Wilk Technologies International Ltd., priority 2022, published 2025)
